Biological target: T1, human TLX (Homo sapiens, UniProt Q9Y466)
T1 construct: expressed in transfected cells; host or cells: HEK293T
Assay: Gal4 hybrid reporter gene assay (TLX modulation)
Assay type: cell-based
Design: key to relative reporter activity: fraction of DMSO control (DMSO = 1)
Details: for EC50: Gal4-TLX hybrid reporter in HEK293T cells, 16 h incubation; for relative reporter activity: DMSO control = 1
Procedure: In the Tables, the TLX relative reporter activity is expressed as EC50 (in µM) for each listed compound. "EC50" refers to a measure of the concentration of a compound which induces a biological response halfway between the baseline and maximum after a specified exposure time. […] The EC50 is measured via a hybrid reporter gene assay, employing the transfection of a reporter (firefly luciferase with Gal4 response element), a control gene (Renilla luciferase), a transcriptional activator (Gal4-VP16) and a hybrid receptor consisting of the TLX ligand binding domain (LBD) and the Gal4 DNA binding domain (DBD).
Hybrid reporter gene assays. […] After 24 h, medium was changed to Opti-MEM without supplements and cells were transiently transfected using Lipofectamine LTX reagent (Invitrogen, Carlsbad, CA, USA) according to the manufacturer's protocol. Five hours after transfection, cells were incubated with the test compounds in Opti-MEM supplemented with penicillin (100 U/mL), streptomycin (100 µg/mL) and 0.1% DMSO for 16 h before luciferase activity was measured using the Dual-Glo Luciferase Assay System (Promega) according to the manufacturer's protocol on a Tecan Spark luminometer (Tecan Deutschland GmbH, Crailsheim, Germany). Firefly luminescence was divided by Renilla luminescence and multiplied by 1000 resulting in relative light units (RLU) to normalize for transfection efficiency and cell growth. Fold activation was obtained by dividing the mean RLU of test compound by the mean RLU of the untreated control. All samples were tested in at least three biologically independent experiments in duplicates. For dose-response curve fitting and calculation of EC50 values, the equation "[Agonist] vs. response -- Variable slope (four parameters)" was used in GraphPad Prism (version 7.00, GraphPad Software, La Jolla, CA, USA).

[1] = minimal remaining or maximum reporter activity after treatment, in brackets below the EC50, <1 agonism, >1 inverse agonism

T1 sequence (Q9Y466 155-383 limits assumed): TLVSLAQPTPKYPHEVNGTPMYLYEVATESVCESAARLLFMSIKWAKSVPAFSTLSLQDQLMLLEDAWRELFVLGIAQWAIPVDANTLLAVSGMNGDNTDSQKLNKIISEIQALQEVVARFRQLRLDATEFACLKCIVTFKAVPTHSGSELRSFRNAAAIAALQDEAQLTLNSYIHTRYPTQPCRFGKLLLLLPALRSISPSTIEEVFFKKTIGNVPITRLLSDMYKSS

Compound	EC50 [nM]	relative reporter activity [1]	other results
Nc1cc(-c2cnoc2)cc(C(F)(F)F)c1 [compound 40, 3-(isoxazol-4-yl)-5-(trifluoromethyl)aniline]	3200 ± 1200	0.47±0.06	–
C=C(C(=O)Nc1cc(-c2ccnc(C)c2)cc(C(F)(F)F)c1)c1ccc2cc(OC)ccc2c1 [compound 83, 2-(6-methoxynaphthalen-2-yl)-N-(3-(2-methylpyridin-4-yl)-5-(trifluoromethyl)-phenyl)propenamide]	–	–	relative reporter activity (at 10 µM): (0.66±0.07 at 10 µM)
Cc1cc(C)c(-c2cc(N)cc(C(F)(F)F)c2)s1 [compound 56, 3-(3,5-dimethylthiophen-2-yl)-5-(trifluoromethyl)aniline]	–	–	relative reporter activity (at 50 µM): 3.4±0.3
Nc1cc(-c2ccc3c(c2)CCN3)cc(C(F)(F)F)c1 [compound 96, 3-(indolin-5-yl)-5-(trifluoromethyl)aniline]	2300 ± 700	–	–
Cc1ccc(C(=O)Nc2cc(-n3cnc(C)c3)cc(C(F)(F)F)c2)cc1 [compound 18, 4-methyl-N-(3-(4-methyl-1H-imidazol-1-yl)-5-(trifluoromethyl)phenyl)benzamide]	1400 ± 700	0.59±0.06	–
CC(=O)c1cc(-c2cc(NC(=O)Cc3ccccc3Cl)cc(C(F)(F)F)c2)cs1 [compound 62, N-(3-(5-acetylthiophen-3-yl)-5-(trifluoromethyl)phenyl)-2-(2-chlorophenyl)-acetamide]	360 ± 90	0.27±0.03	–
Cc1cc(-c2cc(N)c3cn[nH]c3c2)ccn1 [compound 117]	7900 ± 1500	0.31±0.03	–
Nc1cc(-n2ccnc2)cc(C(F)(F)F)c1 [compound 33, 3-(1H-imidazol-1-yl)-5-(trifluoromethyl)aniline]	4400 ± 900	–	–
Cc1cc(-c2cc(NC(=O)c3ccc4ccccc4c3)cc(C(F)(F)F)c2)ccn1 [compound 80, N-(3-(2-methylpyridin-4-yl)-5-(trifluoromethyl)phenyl)-2-naphthamide]	970 ± 220	0.29±0.06	–
COC(=O)c1ccc(-c2cc(N)cc(C(F)(F)F)c2)s1 [compound 58, methyl 5-(3-amino-5-(trifluoromethyl)phenyl)thiophene-2-carboxylate]	3500 ± 1800	–	–
Cc1cc(-c2cc(N)cc(C(F)(F)F)c2)cs1 [compound 59, 3-(5-methylthiophen-3-yl)-5-(trifluoromethyl)aniline]	–	–	relative reporter activity (at 30 µM): 2.8±0.5
Cc1nc(-c2cc(N)cc(C(F)(F)F)c2)cs1 [compound 64, 3-(2-methylthiazol-4-yl)-5-(trifluoromethyl)aniline]	–	–	relative reporter activity (at 120 µM): (0.67±0.06 at 120 µM)
